IC50 data for two compounds are collected here from ChEMBL document CHEMBL3102750 (J Med Chem, 2013).

Test [1] concerns the target T1, Muscarinic acetylcholine receptor M5 (Rattus norvegicus, UniProt P08911).
T1 sequence (P08911 whole entry): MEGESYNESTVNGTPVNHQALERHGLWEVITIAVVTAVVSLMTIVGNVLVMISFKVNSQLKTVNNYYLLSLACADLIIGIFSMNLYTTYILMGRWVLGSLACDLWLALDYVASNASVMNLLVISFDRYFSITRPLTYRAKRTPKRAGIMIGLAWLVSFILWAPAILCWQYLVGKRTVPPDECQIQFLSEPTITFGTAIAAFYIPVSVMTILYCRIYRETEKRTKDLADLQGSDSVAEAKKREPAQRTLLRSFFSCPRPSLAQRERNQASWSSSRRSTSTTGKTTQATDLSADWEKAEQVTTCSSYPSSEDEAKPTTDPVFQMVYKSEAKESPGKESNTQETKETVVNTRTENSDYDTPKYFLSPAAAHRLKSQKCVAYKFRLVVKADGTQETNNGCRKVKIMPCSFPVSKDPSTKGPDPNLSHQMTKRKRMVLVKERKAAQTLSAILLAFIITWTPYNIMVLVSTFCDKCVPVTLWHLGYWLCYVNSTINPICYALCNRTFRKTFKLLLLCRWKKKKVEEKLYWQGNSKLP
The test can be described thus: Negative allosteric modulation of rat muscarinic acetylcholine receptor M5 expressed in CHO cells assessed as inhibition of acetylcholine-induced calcium mobilization incubated for 150 secs prior to acetylcholine induction by Fluo-4 AM staining-based fluorescence assay. The test is classed as functional, cell-based. On the technique in general: A change in cytosolic calcium serves as a functional read-out for many receptors and channels.

For a further test, the target named is T2, Cytochrome P450 1A2 (Homo sapiens, UniProt P05177).
T2 sequence (P05177 whole entry): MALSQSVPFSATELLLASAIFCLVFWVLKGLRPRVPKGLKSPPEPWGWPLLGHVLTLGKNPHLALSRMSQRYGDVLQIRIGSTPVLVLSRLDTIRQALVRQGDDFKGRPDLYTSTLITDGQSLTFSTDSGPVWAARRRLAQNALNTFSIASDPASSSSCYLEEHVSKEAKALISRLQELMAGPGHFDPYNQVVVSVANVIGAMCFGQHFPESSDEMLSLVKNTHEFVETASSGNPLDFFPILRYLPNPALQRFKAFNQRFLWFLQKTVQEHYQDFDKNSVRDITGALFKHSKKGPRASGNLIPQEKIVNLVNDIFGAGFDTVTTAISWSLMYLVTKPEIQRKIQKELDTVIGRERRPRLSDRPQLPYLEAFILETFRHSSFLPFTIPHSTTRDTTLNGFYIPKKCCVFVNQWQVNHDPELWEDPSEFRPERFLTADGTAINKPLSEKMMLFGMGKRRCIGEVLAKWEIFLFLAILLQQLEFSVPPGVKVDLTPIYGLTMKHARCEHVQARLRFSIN
The test can be described thus: Inhibition of CYP1A2 in human liver microsomes using phenacetin as substrate preincubated for 15 mins followed by NADPH addition measured after 8 mins by LC/MS/MS analysis. The test is classed as ADME. (In general: Liver microsomes are a subcellular fraction often used to study metabolism.)

Broadly, the IC50 is the concentration needed to halve the response being measured.

`O=C(c1ccc(F)c(F)c1)N1CCN2C(=O)c3ccccc3C12c1ccccc1` (configuration not stated): the IC50 in test [1] is 2.1 µM.

In the case of `O=C(c1ccc(F)c(F)c1)N1CCN2C(=O)c3ccccc3[C@@]12c1ccc(Cl)cc1`, it took 25 µM to reach half-maximal inhibition at Cytochrome P450 1A2 (IC50).
